Results reported in article PMC8445441, “Elucidating the mechanism by which synthetic helper peptides sensitize Pseudomonas aeruginosa to multiple antibiotics” (PLoS Pathogens, 2021).
Like-named read-outs stand apart in the source and are kept apart here.

Columns and labels:
P. aeruginosa AUMC-Pa-3 = assay: microbe, parasite or virus in culture
Procedure, shortened: (§1)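 MICs were determined by CLSI broth microdilution in MHB, in triplicate: two-fold drug dilutions were mixed 1:1 with bacterial suspension of ~1 × 10^6 CFU/mL and incubated 18 h at 37 °C. The MIC was the lowest concentration with no visible growth.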

P. aeruginosa AUMC-Pa-4 = assay: microbe, parasite or virus in culture
Procedure, shortened: as §1

P. aeruginosa AUMC-Pa-5 = assay: microbe, parasite or virus in culture
Procedure, shortened: as §1

P. aeruginosa AUMC-Pa-6 = assay: microbe, parasite or virus in culture
Procedure, shortened: as §1

P. aeruginosa PAO1 = assay: microbe, parasite or virus in culture; details: PAO1; for FICI / MICac: the MIC for the antibiotic in the combination: S3 Table
Procedure, shortened: as §1

P. aeruginosa ATCC27853 = assay: microbe, parasite or virus in culture; parameters: MICa: MIC of the antibiotic / MICac: MIC of the antibiotic in the combination: unit not given beside the values
Procedure, shortened: as §1

P. aeruginosa NR-31040 = assay: microbe, parasite or virus in culture; parameters: MICa: MIC of the antibiotic / MICac: MIC of the antibiotic in the combination: unit not given beside the values
Procedure, shortened: as §1

P. aeruginosa NR-31041 = assay: microbe, parasite or virus in culture; parameters: MICa: MIC of the antibiotic / MICac: MIC of the antibiotic in the combination: unit not given beside the values
Procedure, shortened: as §1

P. aeruginosa PA14 = assay: microbe, parasite or virus in culture; parameters: MICa: MIC of the antibiotic / MICac: MIC of the antibiotic in the combination: unit not given beside the values
Procedure, shortened: as §1

P. aeruginosa PAK = assay: microbe, parasite or virus in culture; parameters: MICa: MIC of the antibiotic / MICac: MIC of the antibiotic in the combination: unit not given beside the values
Procedure, shortened: as §1

P. aeruginosa HM-214 = details: strain HM-214; antibiotic + D-11 (MICb/MICbc 128/4)
Procedure, shortened: as §1

P. aeruginosa AUMC-Pa-1 = details: strain AUMC-Pa-1; antibiotic + D-11 (MICb/MICbc 128/4)
Procedure, shortened: as §1

P. aeruginosa AUMC-Pa-2 = details: strain AUMC-Pa-2; antibiotic + D-11 (MICb/MICbc 64/4)
Procedure, shortened: as §1

[1] = test system: clinical P. aeruginosa isolates; assay: microbe, parasite or virus in culture; details: Pseudomonas aeruginosa, 18 h, antibiotic alone
Procedure, shortened: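 Broth microdilution per CLSI in MHB, two-fold drug dilutions mixed with an equal volume of bacteria at about 1 × 10^6 CFU/mL. After 18 h at 37 °C, MIC taken as the lowest concentration with no visible growth; run in triplicate.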

MIC (P. aeruginosa AUMC-Pa-3; Pseudomonas aeruginosa, AUMCPA3, 18 h, read-out: MICa: MIC of the antibiotic): 0.5 µM
MICac: MIC of the antibiotic in the combination (P. aeruginosa AUMC-Pa-3; strain AUMC-Pa-3, with D-11 at MICbc 4, unit not given): 0.125
MIC (P. aeruginosa AUMC-Pa-4; Pseudomonas aeruginosa, AUMCPA4, 18 h, read-out: MICa: MIC of the antibiotic): 0.5 µM
MICac: MIC of the antibiotic in the combination (P. aeruginosa AUMC-Pa-4; strain AUMC-Pa-4, with D-11 at MICbc 4, unit not given): 0.25
MIC (P. aeruginosa AUMC-Pa-5; Pseudomonas aeruginosa, AUMCPA5, 18 h, read-out: MICa: MIC of the antibiotic): 0.5 µM
MICac: MIC of the antibiotic in the combination (P. aeruginosa AUMC-Pa-5; strain AUMC-Pa-5, with D-11 at MICbc 4, unit not given): 1
MIC (P. aeruginosa AUMC-Pa-6; Pseudomonas aeruginosa, AUMCPA6, 18 h, read-out: MICa: MIC of the antibiotic): 0.25 µM
MICac: MIC of the antibiotic in the combination (P. aeruginosa AUMC-Pa-6; strain AUMC-Pa-6, with D-11 at MICbc 4, unit not given): 0.25/0.25
MIC (P. aeruginosa PAO1; Pseudomonas aeruginosa, PAO1, 18 h, read-out: MICa: the MIC of antibiotics, S3 Table, antibiotic alone): 1 µM
MICac: the MIC for the antibiotic in the combination (P. aeruginosa PAO1; with 2 μM D-11): 0.0625 µM
MICac: the MIC for the antibiotic in the combination (P. aeruginosa PAO1; with 4 μM D-11): 0.03125 µM
MIC (P. aeruginosa ATCC27853; Pseudomonas aeruginosa, ATCC27853, 18 h, read-out: MICa: MIC of the antibiotic): 1 µM
MICac: MIC of the antibiotic in the combination (P. aeruginosa ATCC27853; strain ATCC27853, with D-11 at MICbc 4, unit not given): 0.125
MIC (P. aeruginosa NR-31040; Pseudomonas aeruginosa, NR31040, 18 h, read-out: MICa: MIC of the antibiotic): 1 µM
MICac: MIC of the antibiotic in the combination (P. aeruginosa NR-31040; strain NR-31040, with D-11 at MICbc 4, unit not given): 0.25
MIC (P. aeruginosa NR-31041; Pseudomonas aeruginosa, NR31041, 18 h, read-out: MICa: MIC of the antibiotic): 1 µM
MICac: MIC of the antibiotic in the combination (P. aeruginosa NR-31041; strain NR-31041, with D-11 at MICbc 4, unit not given): 0.25
MIC (P. aeruginosa PA14; Pseudomonas aeruginosa, PA14, 18 h, read-out: MICa: MIC of the antibiotic): 0.5 µM
MICac: MIC of the antibiotic in the combination (P. aeruginosa PA14; strain PA14, with D-11 at MICbc 4, unit not given): 0.25
MIC (P. aeruginosa PAK; Pseudomonas aeruginosa, 18 h, read-out: MICa: MIC of the antibiotic): 0.5 µM
MICac: MIC of the antibiotic in the combination (P. aeruginosa PAK; strain PAK, with D-11 at MICbc 4, unit not given): 0.25
MIC ([1]; read-out: Antibiotic sensibility (MIC) of clinical P. aeruginosa isolate AUMC-Pa-1, strain AUMC-Pa-1): 8 µM
MIC ([1]; read-out: Antibiotic sensibility (MIC) of clinical P. aeruginosa isolate AUMC-Pa-2, strain AUMC-Pa-2): 0.5 µM
MIC ([1]; read-out: Antibiotic sensibility (MIC) of clinical P. aeruginosa isolate AUMC-Pa-3, strain AUMC-Pa-3): 0.5 µM
MIC ([1]; read-out: Antibiotic sensibility (MIC) of clinical P. aeruginosa isolate AUMC-Pa-4, strain AUMC-Pa-4): 0.5 µM
MIC ([1]; read-out: Antibiotic sensibility (MIC) of clinical P. aeruginosa isolate AUMC-Pa-5, strain AUMC-Pa-5): 0.5 µM
MIC ([1]; read-out: Antibiotic sensibility (MIC) of clinical P. aeruginosa isolate AUMC-Pa-6, strain AUMC-Pa-6): 0.25 µM
MIC ([1]; read-out: Antibiotic sensibility (MIC) of clinical P. aeruginosa isolate HM-214, strain HM-214): 1 µM
MIC ([1]; read-out: Antibiotic sensibility (MIC) of clinical P. aeruginosa isolate NR-31040, strain NR-31040): 1 µM
MIC ([1]; read-out: Antibiotic sensibility (MIC) of clinical P. aeruginosa isolate NR-31041, strain NR-31041): 1 µM
Compound: C[C@H]1COc2c(N3CCN(C)CC3)c(F)cc3c(=O)c(C(=O)O)cn1c23 [Levofloxacin]
FICI (P. aeruginosa AUMC-Pa-3; strain AUMC-Pa-3, antibiotic + D-11 (MICb/MICbc 128/4)): 0.281
FICI (P. aeruginosa AUMC-Pa-4; strain AUMC-Pa-4, antibiotic + D-11 (MICb/MICbc 128/4)): 0.531
FICI (P. aeruginosa AUMC-Pa-5; strain AUMC-Pa-5, antibiotic + D-11 (MICb/MICbc 64/4)): 2.063
FICI (P. aeruginosa AUMC-Pa-6; strain AUMC-Pa-6, antibiotic + D-11 (MICb/MICbc 64/4)): 1.063
FICI (P. aeruginosa PAO1; antibiotic + 2 μM D-11): 0.125
FICI (P. aeruginosa PAO1; antibiotic + 4 μM D-11): 0.156
FICI (P. aeruginosa ATCC27853; strain ATCC27853, antibiotic + D-11 (MICb/MICbc 32/4)): 0.250
FICI (P. aeruginosa NR-31040; strain NR-31040, antibiotic + D-11 (MICb/MICbc 128/4)): 0.281
FICI (P. aeruginosa NR-31041; strain NR-31041, antibiotic + D-11 (MICb/MICbc 64/4)): 0.313
FICI (P. aeruginosa PA14; strain PA14, antibiotic + D-11 (MICb/MICbc 128/4)): 0.531
FICI (P. aeruginosa PAK; strain PAK, antibiotic + D-11 (MICb/MICbc 64/4)): 0.563
FICI (P. aeruginosa HM-214): 0.531
FICI (P. aeruginosa AUMC-Pa-1): 0.156
FICI (P. aeruginosa AUMC-Pa-2): 0.563
